This note sets out measurements from patent EP1935887A1, “Heterocyclic substituted carbonyl derivatives and their use as dopamine D3 receptor ligands” (Aventis Pharmaceuticals Inc., priority 2001, dated 2002).

Where two headings read alike, the source gives them in different places.

For the experiment, the target named is T1, Cloned Human Dopamine D3 Receptors (Homo sapiens, UniProt P35462).
T1 construct: expressed in transfected cells; membrane homogenate
Put plainly: [N-Methyl-3H]Spiroperidol binding to cloned human dopamine D3 receptors. Conditions: read-out: d3Ki. The source says:
[N-Methyl-^3H]Spiroperidol Binding to Cloned Human Dopamine D3 Receptors
This assay measures the in vitro activity of compounds on cloned human dopamine (D3) receptors and predicts the direct dopamine-blocking properties of putative neuropsychiatric agents at human dopamine D3 receptors.
The D3 gene was isolated from a human striatal cDNA library (Stratagene). The gene was sequenced and sub-cloned into the expression vector RC/RSV (Invitrogen). CHO (Chinese Hamster Ovary) cells were stably transfected with 10 µg of the D3/RSV plasmid using the DOTAP method from Boehringer Mannheim and 72 clones that were G418 resistant were isolated. Using mRNA and binding displacement data a single high expressing clone was identified. This clone was then grown in large batches for the purpose of developing a 96 well format assay.
• 1. One plate (10 cm) with approximately 2-3 million D3 cells per plate is incubated with 1 ml of Trypsin-EDTA at room temperature for -2 min or until cells have lifted off plates. Four ml of Ham's F12 + 10% Fetal Bovine Serum + 1% Penicillin/Streptomycin + G418 (400 µg/ml) medium are added to resuspend cells and 1 ml of this is added to each large plate (15 cm) containing 19 ml of the same medium as mentioned above. • 2. The 5 large plates are incubated at 37°C + 5% CO2 for - 3 days or until the cells are confluent. • 3. After these plates are confluent, they are split into 10 large plates. Medium is aspirated off, 2 ml of Trypsin-EDTA are added to each plate and plates are incubated at RT for 2 min or until cells have lifted off the plate. Eight ml of the F12 medium (same medium as #1 above) are added to each plate (10 ml total) to resuspend the cells and 5 ml are transferred to the 2 new plates containing 15 ml of the F12 media. • 4. The 10 large plates are incubated at 37°C + 5% CO2 for ∼ 2 days or until the cells are confluent. • 5. The 10 large plates are split into 60 large plates (using Trypsin-EDTA as #3 except 4 ml of F12 medium are added to resuspend cells and 1 ml is aliquoted to 6 new plates containing 19 ml of F12 medium each). • 6. Plates are incubated at 37°C + 5% CO2 for - 3 days or until cell are confluent. • 7. The 60 large plates are then split into 60 roller bottles (100-150 million cells/bottle). Medium is aspirated off , 2 ml of Trypsin-EDTA are added to each plate and incubated at RT for -2 minutes or until cells have lifted off plates. Eight ml of F12 medium are added to each plate to resuspend cells and the entire 10 ml are added to 1 roller bottle containing 90 ml of the F12 medium. • 8. The 60 roller bottles are immediately placed on their sides and transferred to the roller bottle incubator. They are incubated at 37°C + 5% CO2 for ~ 3-5 days. Cells are spun at 30-40% motor speed in the Forma incubator. • 9. Medium is poured off and cells are washed 2X in PBS. • 10. Cells are then scraped off in 20 ml of PBS and the bottles are rinsed again with 5 ml of PBS to remove any remaining cells. Cells are stored on ice before membrane prepration. • 11. The yield for 60 D3 roller bottles has varied from - 260-500 mg. Note: All tissue culture reagents are from Gibco-BRL.
The cells are harvested into 250 ml centrifuge tubes with 100 volumes of cold phosphate buffered saline (PBS) and spun down (1200xG for 10 min at 4°C). The medium is removed and 100 ml PBS are added to each centrifuge tube, cells are resuspened and spun down again. The PBS is removed and the final pellet is homogenized in an appropriate volume of 10% DMSO with a polytron on ice at a medium setting.
A 200 µl sample membrane homogenate is added to 200 µl of 1% SDS, vortexed and allowed to stand for 5 min. Aliquots (25, 50 and 100 µl) of this mixture are assayed in duplicate following the standard Bio-Rad DC protein assay protocol (kit catalog number 500-0112) and using reagent S. Absorbance readings are made at 750 nm (note: the most accurate protein OD readings are between 0.1-0.5 units). […]

T1 sequence (P35462 whole entry): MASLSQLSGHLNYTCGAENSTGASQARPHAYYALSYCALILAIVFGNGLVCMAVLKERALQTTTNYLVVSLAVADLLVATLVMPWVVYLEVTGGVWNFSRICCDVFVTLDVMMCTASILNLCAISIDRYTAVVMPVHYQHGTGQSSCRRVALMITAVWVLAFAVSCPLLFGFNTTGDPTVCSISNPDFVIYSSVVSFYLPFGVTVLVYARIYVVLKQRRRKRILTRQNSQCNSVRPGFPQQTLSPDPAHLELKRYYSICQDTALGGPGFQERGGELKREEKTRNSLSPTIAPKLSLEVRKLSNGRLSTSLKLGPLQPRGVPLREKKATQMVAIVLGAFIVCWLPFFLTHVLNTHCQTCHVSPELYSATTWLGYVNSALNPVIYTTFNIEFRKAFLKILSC

In the case of `CCN(C(=O)CCCCN1CCN(c2csc3cc(F)ccc23)CC1)c1ccc2c(c1)OCO2` [compound 822130], where the note is “Table 2, unit inferred”, the Ki is 0.051 µM.
On the same count and under the same terms, next, `COc1ccc(N(C)C(=O)CCCCN2CCN(c3csc4cc(F)ccc34)CC2)cc1` [compound 822131]: 0.061 µM.
As to `CCN(C(=O)CCCCN1CCN(c2csc3cc(F)ccc23)CC1)c1c(C)cccc1O` [compound 822132], the Ki (Table 2, unit inferred) amounted to 0.018 µM.
Still for that read-out and setting: next, `CN(C(=O)CCCCN1CCN(c2csc3cc(F)ccc23)CC1)c1ccc(Cl)cc1` [compound 822133]: 0.017 µM; `O=C(CCCCN1CCN(c2csc3cc(F)ccc23)CC1)Nc1cccc2ccccc12` [compound 822134]: 0.082 µM.
The same measure, in the same setting: next, `O=C(CCCCN1CCN(c2csc3cc(F)ccc23)CC1)Nc1ccccc1F` [compound 822135]: 0.0036 µM; `CC(C)(C)c1ccc(NC(=O)CCCCN2CCN(c3csc4cc(F)ccc34)CC2)cc1` [compound 822136]: 0.207 µM.
`O=C(CCCCN1CCN(c2csc3cc(F)ccc23)CC1)Nc1cccc(Oc2ccccc2)c1` [compound 822137]: the Ki (Table 2, unit inferred) came to 0.036 µM.
On the same count and under the same terms, next, `CN(C(=O)CCCCN1CCN(c2csc3cc(F)ccc23)CC1)c1cccc2ccccc12` [compound 822138]: 0.081 µM; `CN(C(=O)CCCCN1CCN(c2csc3cc(F)ccc23)CC1)c1ccccc1F` [compound 822139]: 0.0212 µM; `CN(C(=O)CCCCN1CCN(c2csc3cc(F)ccc23)CC1)c1ccc(C(C)(C)C)cc1` [compound 822140]: 0.0128 µM.
In the case of `CN(C(=O)CCCCN1CCN(c2csc3cc(F)ccc23)CC1)c1cccc(Oc2ccccc2)c1` [compound 822142], where the note is “Table 2, unit inferred”, the Ki was 0.0391 µM.
On the same count and under the same terms, next, `O=C(CCCCN1CCN(c2csc3cc(F)ccc23)CC1)N(Cc1ccccc1)c1cccc(Oc2ccccc2)c1` [compound 822143]: 0.338 µM.
The same measure, in the same setting: next, `COc1ccc(N(C)C(=O)CCCN2CCN(c3csc4cc(F)ccc34)CC2)cc1` [compound 822144]: 0.144 µM.
On to `O=C(CCCN1CCN(c2csc3cc(F)ccc23)CC1)Nc1cccc2ccccc12` [compound 822145], for which the Ki (Table 2, unit inferred) was 0.176 µM.
On the same count and under the same terms, next, `CC(C)(C)c1ccc(NC(=O)CCCN2CCN(c3csc4cc(F)ccc34)CC2)cc1` [compound 822147]: 0.217 µM.
For `O=C(CCCN1CCN(c2csc3cc(F)ccc23)CC1)Nc1cccc(Oc2ccccc2)c1` [compound 822148], the Ki (Table 2, unit inferred) was determined as 0.0414 µM.
Still for that read-out and setting: next, `O=C(NC1CC1)[C@@H]1C[C@H]1CN1CCN(c2csc3cc(C(F)(F)F)ccc23)CC1` [compound 822202]: 0.0081 µM.
The same measure, in the same setting: next, `O=C(NCc1cccnc1)[C@@H]1C[C@H]1CN1CCN(c2csc3cc(C(F)(F)F)ccc23)CC1` [compound 822203]: 0.03 µM; `O=C(NCc1ccc2c(c1)OCO2)[C@@H]1C[C@H]1CN1CCN(c2csc3cc(C(F)(F)F)ccc23)CC1` [compound 822204]: 0.0126 µM.
In the case of `O=C(NCc1ccccn1)[C@@H]1CCC[C@H]1N1CCN(c2csc3cc(F)ccc23)CC1` [compound 825825], the Ki was 0.152 µM.
Still for that read-out and setting: next, `O=C(NC1CC1)[C@@H]1CCC[C@H]1N1CCN(c2csc3cc(F)ccc23)CC1` [compound 825827]: 0.0548 µM.
For the compound `CN(C)c1ccc(CNC(=O)[C@@H]2CCC[C@H]2N2CCN(c3csc4cc(F)ccc34)CC2)cc1` [compound 825828], the Ki is 0.0218 µM.
The same measure, in the same setting: next, `O=C(NCc1ccccc1)[C@@H]1CCC[C@H]1N1CCN(c2csc3cc(F)ccc23)CC1` [compound 825830]: 0.0646 µM; `O=C(NCc1cccs1)[C@@H]1CCC[C@H]1N1CCN(c2csc3cc(F)ccc23)CC1` [compound 825832]: 0.0603 µM.
Consider `CC1C(CN2CCN(c3csc4cc(C(F)(F)F)ccc34)CC2)C1C(=O)NC1CCC1` (stereo not shown) [compound 825857], for which the Ki (Table 2, unit inferred) was found to be 0.137 µM.
On the same count and under the same terms, next, `CC1C(CN2CCN(c3csc4cc(C(F)(F)F)ccc34)CC2)C1C(=O)NC1CCCCC1` (stereo not shown) [compound 825860]: 0.13 µM; `CC1C(CN2CCN(c3csc4cc(C(F)(F)F)ccc34)CC2)C1C(=O)NCc1ccc(N(C)C)cc1` (stereo not shown) [compound 825871]: 0.137 µM; `CC1[C@@H](CN2CCN(c3csc4cc(C(F)(F)F)ccc34)CC2)[C@@H]1C(=O)NCC1CC1` (stereo partly shown) [compound 825872]: 0.104 µM.
The same measure, in the same setting: next, `C[C@@]1(C(=O)NCc2ccc3ccccc3c2)C[C@H]1CN1CCN(c2csc3cc(C(F)(F)F)ccc23)CC1` [compound 825882]: 0.186 µM; `C[C@@]1(C(=O)NCc2ccc3c(c2)OCO3)C[C@H]1CN1CCN(c2csc3cc(C(F)(F)F)ccc23)CC1` [compound 825886]: 0.0402 µM.
The same measure, in the same setting: next, `C[C@@]1(C(=O)NCc2nc3ccccc3[nH]2)C[C@H]1CN1CCN(c2csc3cc(C(F)(F)F)ccc23)CC1` [compound 825887]: 0.0904 µM; `COc1cc(CNC(=O)[C@]2(C)C[C@H]2CN2CCN(c3csc4cc(C(F)(F)F)ccc34)CC2)cc(OC)c1OC` [compound 825888]: 0.0894 µM.
As for `C[C@@]1(C(=O)N2CCCCC2)C[C@H]1CN1CCN(c2csc3cc(C(F)(F)F)ccc23)CC1` [compound 825891], the Ki (Table 2 part the 10th table) was 0.118 µM.
In the case of `C[C@@]1(C(=O)NC2CC2)C[C@H]1CN1CCN(c2csc3cc(C(F)(F)F)ccc23)CC1` [compound 825893], the Ki (Table 2, unit inferred) was 0.0738 µM.
`CN(C)c1ccc(CNC(=O)[C@]2(C)C[C@H]2CN2CCN(c3csc4cc(C(F)(F)F)ccc34)CC2)cc1` [compound 825894]: the Ki (Table 2, unit inferred) is 0.059 µM.
Same read-out and setting: next, `C[C@@]1(C(=O)NCC2CC2)C[C@H]1CN1CCN(c2csc3cc(C(F)(F)F)ccc23)CC1` [compound 825895]: 0.0317 µM; `C[C@@]1(C(=O)NCc2ccccc2)C[C@H]1CN1CCN(c2csc3cc(C(F)(F)F)ccc23)CC1` [compound 825896]: 0.0533 µM.
On the same count and under the same terms, next, `C[C@@]1(C(=O)NCc2ccco2)C[C@H]1CN1CCN(c2csc3cc(C(F)(F)F)ccc23)CC1` [compound 825897]: 0.14 µM; `C[C@@]1(C(=O)NCc2cccs2)C[C@H]1CN1CCN(c2csc3cc(C(F)(F)F)ccc23)CC1` [compound 825898]: 0.049 µM; `C[C@@]1(C(=O)NCc2ccc(C(F)(F)F)cc2)C[C@H]1CN1CCN(c2csc3cc(C(F)(F)F)ccc23)CC1` [compound 825899]: 0.0429 µM.
For `Cc1cccc(CNC(=O)[C@@H]2CCC[C@H]2N2CCN(c3csc4cc(F)ccc34)CC2)c1` [compound 825900], the Ki was 0.0224 µM.
`O=C([C@@H]1CCC[C@H]1N1CCN(c2csc3cc(F)ccc23)CC1)N1CCCCC1` [compound 826056]: the Ki (Table 2 part the 10th table) is 0.0054 µM.
On to `O=C(NC1CCC1)[C@@H]1CCC[C@H]1N1CCN(c2csc3cc(F)ccc23)CC1` [compound 826057], for which the Ki stood at 0.0909 µM.
The same measure, in the same setting: next, `CC(NC(=O)[C@@H]1CCC[C@H]1N1CCN(c2csc3cc(F)ccc23)CC1)c1ccccc1` (stereo partly shown) [compound 826058]: 0.0452 µM; `O=C(NCc1cccc2ccccc12)[C@@H]1CCC[C@H]1N1CCN(c2csc3cc(F)ccc23)CC1` [compound 826059]: 0.0271 µM; `O=C(NC1CCCCC1)[C@@H]1CCC[C@H]1N1CCN(c2csc3cc(F)ccc23)CC1` [compound 826060]: 0.0402 µM.
Turning to `O=C(NCc1ccccn1)[C@@H]1C[C@H]1CN1CCN(c2csc3cc(C(F)(F)F)ccc23)CC1` [compound 826065], the Ki (Table 2, unit inferred) is 0.175 µM.
Still for that read-out and setting: next, `CN(C)c1ccc(CNC(=O)[C@@H]2C[C@H]2CN2CCN(c3csc4cc(C(F)(F)F)ccc34)CC2)cc1` [compound 826066]: 0.0603 µM.
